Results published in patent US20220133753A1, “COMPOSITIONS AND METHODS USEFUL FOR TREATING DISEASES CHARACTERIZED BY INSUFFICIENT PANTOTHENATE KINASE ACTIVITY” (Comet Therapeutics, Inc., priority 2016, published 2022).

What was measured:
[1] = Parallel Artificial Membrane Permeability Assay (PAMPA); type: in vitro ADME; conditions: 5 h incubation, room temperature, phosphate-buffered saline
Protocol: FIG. 13E is a depiction of a Parallel Artificial Membrane Permeability Assay (PAMPA). Experiments were performed according to the manufacturer's instructions. In this assay, a two-well system is separated by an artificial lipid-oil-lipid membrane (shown in grey). To the lower (donor) compartment, a compound dissolved in buffer is added, the upper (acceptor) compartment contains only buffer. After 5 hours of incubation, concentration of compound is measured in both wells to assess its propensity to diffuse over the artificial membrane. The permeability was calculated according to the manufacturer's instruction (formulas are depicted to the right). Compounds that are below the assay threshold are predicted to be unable to pass membranes passively, whereas compounds above the threshold are able to pass membranes passively. Ceq=Equilibrium Concentration, CD=Concentration in donor well, VD=Volume of donor well (0.3 ml), CA=Concentration in acceptor well, VA=Volume of acceptor well (0.2 ml), P=Permeability, S=Membrane area (0.3 cm2), t=Incubation time (18000 s).
PAMPA assay procedure: Parallel Artificial Membrane Permeability Assay (PAMPA) was performed and processed according to manufacturer's instructions (BD Gentest Pre-coated PAMPA plates). Briefly, two superimposed wells are separated by an artificial lipid-oil-lipid membrane. The compound of interest (PPanSH, CoA, caffeine, amiloride) was added to the bottom well in phosphate-buffered saline, whereas the top well was filled with phosphate-buffered saline alone. After 5 h of incubation at room temperature, concentrations of the different compounds were measured using UV-VIS absorption spectroscopy (BMG Labtech SPECTROstar Omega) along with calibration curves for all compounds. The permeability efficiency was further calculated according to manufacturer's instructions. For caffeine and amiloride, four replicates were performed; for PPanSH and CoA twelve replicates were performed. Caffeine and amiloride were obtained from Sigma.

[2] = test system: Drosophila S2 cells; assay: HoPan treatment of Drosophila S2 cells in combination with CoA or 4′-phosphopantetheine; type: cell-based; conditions: HoPan treated S2 cells
Protocol: HoPan treatment of Drosophila S2 Cell in combination with CoA or 4′-phosphopantetheine treatment: Drosophila Schneider's S2 cells were maintained at standard conditions as explained above. Cells in the exponential phase of growth were used for all the experiments. Different indicated concentrations of CoA or 4′-phosphopantetheine (deuterium labelled PPanSH(D4) or unlabeled PPanSH) were added to S2 cells either in the presence or absence of 0.5 mM HoPan (Zhou Fang Pharm Chemical, China) for 48 h. Similarly, Drosophila S2 cells were treated with different concentrations of PPanSH(D4) at either 25° C. or 4° C. and cells were then harvested at various time points to access transport of PPanSH(D4). Stable isotope labelled PPanSH containing 4 deuterium atoms was purchased from Syncom (Groningen, The Netherlands) as a sodium salt (chemical structure is provided in FIG. 13A). As a read out cell count, intracellular total CoA and PPanSH levels (both labelled and unlabeled levels wherever appropriate) and histone acetylation levels were analyzed as explained below.
Drosophila S2 Cell Immunofluorescence Staining: For immunofluorescence Drosophila S2 cells were seeded on Poly-L-Lysine coated (Sigma-Aldrich) glass microscope slides and allowed to settle for 45 min. Cells were fixed with 3.7% formaldehyde (Sigma Aldrich) for 20 min, washed briefly with PBS+0.1% Triton-X-100 (Sigma Aldrich) and permeabilized with PBS+0.2% Triton-X-100 for 20 min. The slides were incubated in primary antibody (rabbit anti-AcLys, Cell Signaling Cat No: 9441, 1:500) to visualize histone acetylation levels in PBS+0.1% Triton-X-100 overnight and after an additional washing step in PBS+0.1% Triton-X-100 they were incubated in secondary goat anti-rabbit-Alexa488 antibody (Molecular Probes) for two hours at room temperature (RT). F-actin was detected with Rhodamin-Phalloidin (20 U/ml)(Invitrogen) and DNA by staining with DAPI (0.2 ug/ml) (Thermo Scientific). Finally the samples were mounted in 80% glycerol and analyzed using a Leica fluorescence microscope with Leica software. Adobe Photoshop and Illustrator (Adobe Systems Incorporated, San Jose, Calif., USA) were used for image assembly.

Compound: CC(C)(COP(=O)(O)OP(=O)(O)OC[C@H]1O[C@@H](n2cnc3c(N)ncnc32)[C@H](O)[C@@H]1OP(=O)(O)O)[C@@H](O)C(=O)NCCC(=O)NCCS [CoA, Coenzyme A]
- membrane permeation (PAMPA) [1]: poorly permeating molecule and not
- intracellular concentration of CoA ([2]; compound added to the culture medium, HPLC): restored the intracellular concentration of CoA
- rescue of HoPan-induced decrease in cell count ([2]; compound added to the medium): rescued
- rescue of HoPan-induced histone acetylation defect ([2]; compound added to the medium): rescued
- intracellular levels of 4′-phosphopantetheine ([2]; external supplementation, HPLC): significantly increased
